Laboratory results published in patent US12448394B2, “Heterocyclic pyrazole derivatives as type III receptor tyrosine kinase inhibitors” (DEVELOPMENT CENTER FOR BIOTECHNOLOGY, priority 2019, dated 2025).

How the values were obtained:
FLT3 kinase = biological target: T1, FLT3 kinase (Homo sapiens, UniProt P36888); test: FLT3 kinase assay (AlphaScreen); assay type: biochemical; conditions: read-out: Ranking of IC50 values, FLT3
T1 construct: purchased SignalChem
T1 sequence (P36888 27-993): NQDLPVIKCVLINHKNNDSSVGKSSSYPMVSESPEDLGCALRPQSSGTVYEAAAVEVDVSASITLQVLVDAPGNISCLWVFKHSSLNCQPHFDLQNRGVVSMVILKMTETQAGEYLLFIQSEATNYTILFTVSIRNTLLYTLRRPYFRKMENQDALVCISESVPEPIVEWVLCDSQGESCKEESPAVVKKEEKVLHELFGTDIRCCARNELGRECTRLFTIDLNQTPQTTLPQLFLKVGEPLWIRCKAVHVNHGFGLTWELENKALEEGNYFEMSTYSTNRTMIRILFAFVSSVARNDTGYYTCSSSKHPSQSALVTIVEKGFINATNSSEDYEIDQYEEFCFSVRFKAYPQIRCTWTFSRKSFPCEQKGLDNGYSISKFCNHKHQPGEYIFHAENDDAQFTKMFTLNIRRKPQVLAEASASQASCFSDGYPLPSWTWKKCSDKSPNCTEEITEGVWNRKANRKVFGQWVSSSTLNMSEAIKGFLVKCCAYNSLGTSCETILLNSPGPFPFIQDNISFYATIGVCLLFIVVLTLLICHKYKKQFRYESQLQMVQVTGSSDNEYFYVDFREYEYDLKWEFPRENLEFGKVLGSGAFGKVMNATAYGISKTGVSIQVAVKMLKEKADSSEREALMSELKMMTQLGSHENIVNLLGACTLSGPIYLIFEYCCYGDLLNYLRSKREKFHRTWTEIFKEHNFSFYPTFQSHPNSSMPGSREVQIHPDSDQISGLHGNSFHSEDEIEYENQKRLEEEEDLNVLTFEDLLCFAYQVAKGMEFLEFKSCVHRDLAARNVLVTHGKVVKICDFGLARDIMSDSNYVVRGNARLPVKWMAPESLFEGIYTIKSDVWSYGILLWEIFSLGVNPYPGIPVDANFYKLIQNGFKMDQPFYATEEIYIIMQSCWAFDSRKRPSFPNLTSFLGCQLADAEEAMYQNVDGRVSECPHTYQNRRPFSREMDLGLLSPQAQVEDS
How it was run: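 Recombinant FLT3 (1.5 ng) phosphorylated biotinylated poly(Glu4:Tyr1) with 10 μM ATP in MOPS pH 7.0 buffer containing 10 mM MgCl2, 30 min at 30 °C, stopped with EDTA. Product detected by AlphaScreen; IC50 from duplicate serial dilutions.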

[1] = tested on: Molm-14 human acute myeloid leukemia cell with FLT3-ITD mutation; test: Molm-14 cell proliferation assay (CellTiter 96); assay type: cell-based; conditions: Homo sapiens; Molm-14 cells, 72 hours treatment, CellTiter96; read-out: anti-proliferation activity Molm-14 (FLT3-ITD), IC50 ranking
How it was run: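 Molm-14 (FLT3-ITD AML) cells in RPMI 1640 with 10% heat-inactivated FBS were seeded at 25000 cells/well, incubated overnight at 37° C, 5% CO2, then treated with increasing compound concentrations for 72 hours. Viability was read as absorbance at 490 nm after 2˜4 hours with CellTiter96 AQueous One reagent.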

[2] = tested on: phosphorylation of FLT3 and its down-stream effector STAT5; test: Western blotting of p-FLT3 and p-STAT5 in MV4-11 cells; assay type: cell-based; conditions: Homo sapiens; at 30 nM treatment, 3 hours, FLT3-ITD positive MV4-11 leukemia cells; read-out: inhibition activity against phosphorylation of FLT3 and its down-stream effector STAT5
How it was run: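 MV4-11 cells held overnight in IMDM with 0.1% FBS, then 3 million cells treated with compound for 3 h. Whole lysates immunoblotted for p-FLT3 (Tyr-591), p-STAT5 (Tyr-694) and actin. Band intensities at 30 nM compared to DMSO control; % inhibition = (1 − relative intensity) × 100.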

How did the IC50 (FLT3 kinase) turn out when `CN(C)Cc1ccc(-c2cc3c(s2)Cc2c(-c4ccc5cnn(C)c5c4)n[nH]c2-3)cc1` [Compound 94, N,N-dimethyl-1-(4-(3-(1-methyl-1H-indazol-6-yl)-1,4-dihydrothieno [2′,3′:4,5]cyclopenta [1,2-c]pyrazol-6-yl)phenyl)methanamine] was run?
Its IC50 is < 1 nM.

What about the IC50 [1] of the same compound?
The IC50 was < 30 nM.

And the inhibition at 0.03 µM [2]?
The inhibition at 0.03 µM was > 50%.
